Experiments:
MDA-MB-231 cells = test: MTT antiproliferative assay, MDA-MB-231; type: cell-based, human; details: read-out: Cytotoxicity IC50, MDA-MB-231, 72 h
MCF-7 cells = test: MTT antiproliferative assay, MCF-7; type: cell-based, human; details: read-out: Cytotoxicity IC50, MCF-7, 72 h
4T1 cells = test: MTT antiproliferative assay, 4T1; type: cell-based, mouse; details: read-out: Cytotoxicity IC50, 4T1, 72 h
MCF-10A cells = test: MTT antiproliferative assay, MCF-10A; type: cell-based, human; details: read-out: Cytotoxicity IC50, 72 h
HeLa cells = test: MTT antiproliferative assay, HeLa; type: cell-based; details: read-out: Cytotoxicity IC50, 72 h
p-STING = test: Immunohistochemistry of primary tumor tissue; type: in vivo, mouse; details: 5 mg kg^−1 intratumoral, IHC

N.N.[Cl][Pt][Cl] [Cisplatin]
IC50 (MDA-MB-231 cells): 20.2 ± 5.6 µM | IC50 (MCF-7 cells): 18.3 ± 5.74 µM | IC50 (4T1 cells): 25.5 ± 2.52 µM | IC50 (MCF-10A cells): 15.5 ± 4.33 µM | IC50 (HeLa cells): 8.35 ± 0.86 µM | Expression of p-STING on primary tumors (p-STING): can't activate the STING pathway in vivo

Source: publication PMC12670118 (Chemical Science, 2025)
